Series [1] has as its target T1, human vasopressin V1a receptor subtype (Homo sapiens, UniProt P37288).
T1 construct: host or cells: CHO cells, stably transfected (pZeoSV vector for the Thibonnier line)
The series can be described thus: Vasopressin binding in CHO cell membranes expressing human vasopressin V1a subtype receptors ([3H]Manning ligand radioligand binding). Particulars: value in parentheses. Put shortly:
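Membranes from CHO cells expressing human V1a, 25–50 μg protein/well, incubated 60 min at room temperature with [3H]Manning ligand (20 μL of 8 nM stock) in 50 mM Tris-HCl pH 7.4 with BSA, MgCl2 and protease inhibitors. Filtration then scintillation counting; reported as % inhibition or IC50 (nM).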

T1 sequence (P37288 whole entry): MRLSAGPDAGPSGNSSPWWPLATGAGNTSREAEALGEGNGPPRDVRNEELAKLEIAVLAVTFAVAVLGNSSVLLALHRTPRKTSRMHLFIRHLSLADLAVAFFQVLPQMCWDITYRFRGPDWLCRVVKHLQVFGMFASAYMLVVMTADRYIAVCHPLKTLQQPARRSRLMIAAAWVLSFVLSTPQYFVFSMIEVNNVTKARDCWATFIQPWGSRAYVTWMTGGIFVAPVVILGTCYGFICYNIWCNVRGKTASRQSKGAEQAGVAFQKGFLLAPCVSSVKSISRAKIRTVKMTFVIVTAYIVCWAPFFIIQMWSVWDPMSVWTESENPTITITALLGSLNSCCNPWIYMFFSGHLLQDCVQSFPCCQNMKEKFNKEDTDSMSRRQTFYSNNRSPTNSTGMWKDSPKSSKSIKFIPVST

Usually melting point stands for the temperature of the solid-liquid transition. Broadly, the IC50 is the concentration that gives 50% inhibition. As to `COc1cc(C(=O)N2Cc3ccc(C(=O)N(C)Cc4ccc[n+]([O-])c4)n3Cc3ccccc32)ccc1-c1ccccc1C(F)(F)F` [Example 8, 10-{[2-Methoxy-2′-trifluoromethyl-[1,1′-biphenyl]-4-yl]carbonyl}-N-methyl-N-(1-oxo-pyridin-3-ylmethyl)-10,11-dihydro-5H-pyrrolo[2,1-c][1,4]benzodiazepine-3-carboxamide], the melting point is 165 to 170 °C (dec.). Moreover, the IC50 in series [1] was 801 nM.
